Tests used:
[1] = target: T1, GCase (Homo sapiens, UniProt P04062); test: Inhibitory activity towards human GCase in leukocyte extracts from healthy donors; type: biochemical; set-up: screened towards GCase from leukocytes isolated from healthy donors (controls); Isolated leukocytes were disrupted by sonication; from tissue; host or cells: pooled human leukocytes from healthy donors, sonicated homogenate; conditions: for IC50: GCase from leukocytes of healthy donors, 4-methylumbelliferyl-β-D-glucoside 3.33 mM; for inhibition at 1000 µM: human leukocyte extracts, inhibitor 1 mM, 37 °C, read-out: GCase inhibition (percentage inhibition); for rp/n (multivalent effect): relative potency divided by number of binding units n; for rp (relative potency): with respect to monovalent compound 18
T1 sequence (P04062 40-536): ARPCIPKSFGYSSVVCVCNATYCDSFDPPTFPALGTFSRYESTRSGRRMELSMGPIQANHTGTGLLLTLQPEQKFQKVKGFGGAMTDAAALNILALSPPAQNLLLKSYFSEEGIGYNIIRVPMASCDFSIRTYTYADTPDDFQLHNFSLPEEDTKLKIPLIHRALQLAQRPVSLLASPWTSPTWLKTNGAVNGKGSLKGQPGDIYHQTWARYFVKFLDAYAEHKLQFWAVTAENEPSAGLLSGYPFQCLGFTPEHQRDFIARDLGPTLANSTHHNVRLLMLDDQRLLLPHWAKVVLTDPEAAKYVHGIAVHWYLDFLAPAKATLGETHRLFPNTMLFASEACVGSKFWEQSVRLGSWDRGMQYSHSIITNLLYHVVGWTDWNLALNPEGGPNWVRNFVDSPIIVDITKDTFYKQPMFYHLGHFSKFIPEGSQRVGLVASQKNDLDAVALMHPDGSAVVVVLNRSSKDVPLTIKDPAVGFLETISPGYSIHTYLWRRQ
Method: The compounds were screened in extracts from a pool of human leucocytes isolated from healthy donors (1 mM inhibitor concentration, 37 °C and optimal pH conditions, see Experimental Section). […] Isolated leukocytes were disrupted by sonication, and a micro BCA protein assay kit (Sigma‐Aldrich) was used to determine the total protein amount for the enzymatic assay, according to the manufacturer instructions. Enzyme activity was measured in a flat‐bottomed 96‐well plate. […] Percentage GCase inhibition is given with respect to the control (without iminosugar). Data are mean ± SD (n=3).
Data are mean ± SD (n=3). Data obtained were fitted using the Origin Microcal program (see the Supporting Information file for further details). […]
leukocytes isolated from healthy donors (controls). Isolated leukocytes were disrupted by sonication, and a micro BCA protein assay kit (Sigma –Aldrich) was used to determine the total protein amount for the enzymatic assay, according to the manufactu rer instructions. Enzyme activity was measured in a flat - […]
GCase inhibition is given with respect to the control (without iminosugar). Data are mean ± SD (n=3).
The corresponding calculated
IC50 determination: The IC50 values of inhibitors against GCase were determined by measuring the initial […]
Data are mean ± SD (n=3). Data obtained were fitted to the following equation using the Origin Microcal program. where Vi/Vo, represent the ratio between the activity measured in the presence of the inhibitor (Vi) and the activity of the control without the inhibitor (V0), “x” the inhibitor concentration, Max and Min, the maximal and minimal enzymatic activity observed, respectively.

[2] = target: T1, GCase; set-up: method as in earlier work; conditions: 100 μM; ref 20a; cited from earlier work

Row | SMILES | IC50 [1] [µM] | inhibition at 1000 µM [1] [%] | rp/n (multivalent effect) [1] | rp (relative potency) [1] | Increase of enzyme activity [2] [fold]
1 | NC(COCc1cn(CCCCCCCCCN2C[C@@H](O)C(O)[C@H](O)C2)nn1)(COCc1cn(CCCCCCCCCN2C[C@@H](O)C(O)[C@H](O)C2)nn1)COCc1cn(CCCCCCCCCN2C[C@@H](O)C(O)[C@H](O)C2)nn1 [Compound 11] | 27 ± 3 | 100 | 6 | 19 | –
2 | OC1[C@H](O)CN(CCCCCCCCCn2cc(COC[C@@H](OCc3cn(CCCCCCCCCN4C[C@@H](O)C(O)[C@H](O)C4)nn3)[C@@H](OCc3cn(CCCCCCCCCN4C[C@@H](O)C(O)[C@H](O)C4)nn3)[C@H](OCc3cn(CCCCCCCCCN4C[C@@H](O)C(O)[C@H](O)C4)nn3)[C@@H](COCc3cn(CCCCCCCCCN4C[C@@H](O)C(O)[C@H](O)C4)nn3)OCc3cn(CCCCCCCCCN4C[C@@H](O)C(O)[C@H](O)C4)nn3)nn2)C[C@H]1O [Compound 14] | 6 ± 2 | – | 14 | 83 | –
3 | OCc1cn(CCCCCCCCCN2C[C@@H](O)C(O)[C@H](O)C2)nn1 [Compound 18] | 500 ± 50 | ~70 | – | – | –
4 | O=C(CCCCC(=O)NC(COCc1cn(CCCCCCCCCN2C[C@@H](O)C(O)[C@H](O)C2)nn1)(COCc1cn(CCCCCCCCCN2C[C@@H](O)C(O)[C@H](O)C2)nn1)COCc1cn(CCCCCCCCCN2C[C@@H](O)C(O)[C@H](O)C2)nn1)NC(COCc1cn(CCCCCCCCCN2C[C@@H](O)C(O)[C@H](O)C2)nn1)(COCc1cn(CCCCCCCCCN2C[C@@H](O)C(O)[C@H](O)C2)nn1)COCc1cn(CCCCCCCCCN2C[C@@H](O)C(O)[C@H](O)C2)nn1 [Compound 15] | 11 ± 3 | – | 8 | 45 | –
5 | CCCCCCCCN1CC(O)C(O)C(O)C1 (stereo not shown) | – | – | – | – | 1.25
6 | OC1[C@H](O)CN(CCCCCCCCCn2cc(COCC(COCc3cn(CCCCCCCCCN4C[C@@H](O)C(O)[C@H](O)C4)nn3)(COCc3cn(CCCCCCCCCN4C[C@@H](O)C(O)[C@H](O)C4)nn3)COCc3cn(CCCCCCCCCN4C[C@@H](O)C(O)[C@H](O)C4)nn3)nn2)C[C@H]1O [Compound 13] | 9 ± 4 | – | 14 | 56 | –
